Test results: patent US20120308538A1, “PREVENTING SPOILAGE IN ALCOHOL FERMENTATIONS” (priority 2011, published 2012)
Bridges are numbered along the chain shown (N, C = ends). Where no end group is shown, it is not given here.

Legend:
[1] = system: Lactobacillus brevis 1105; experiment: HBD-3 activity in beer fermentations: brew samples seeded with bacteria incubated with HBD-3; type: cell-based; conditions: HBD-3 5 μg/mL; day 14 brew samples; seeded day 6 at 10^2 and 10^4 cfu/ml; two independent fermentations
beer spoilage bacteria = experiment: Beer spoilage challenge in the bottled product (pilot scale 50 L fermentations); conditions: bottled product from CM-PGK-51 fermentation; no freeze-thawing cycle; larger than usual amounts of bacteria
Method: Pilot scale fermentations (50 L) were carried out using CM-PGK-51 as a starter culture.

Lb. brevis = experiment: In situ antimicrobial activity of HBD-3 secreted from yeast strains under fermentation conditions; type: cell-based, Lactobacillus brevis; conditions: summary statement, spoilage bacteria
Method: Yeast strains were grown up from single colonies in 3 mL YEP-Maltose medium (YEPM) and expanded to 2 liters. 40% (w/v) wort was reconstituted in water from spray-dried malt (Belgium) supplemented with 1 mM Zinc and autoclaved. The wort was diluted to give 1.02-1.060 g/mL density (10-15° Plato), and aerated. The yeast harvested from the 2 liter YEPM medium was resuspended in the diluted wort to give a yeast concentration of 1−1.5×10^7 cells/mL in either 250 ml sterile glass cylinders or in 2 L cylindro-conical EBC vessels. Wort was aerated once with compressed air, bubbling from the bottom of the vessel and anaerobic conditions were maintained by overlying with mineral oil. Flasks were incubated at a 45° angle, and incubated at 11-13° C. The density of the solution was measured every other day for 14 days. Samples were also used for the measurement of HBD-3 in the medium. At the end of the brewing period, yeast were recovered and stored for re-pitching if required. To test the efficacy of the HBD-3-yeast to prevent beer spoilage, individual beer spoilage bacterial strains (10^3/mL) were introduced along with pitching yeast. The surviving bacteria were quantified every other day along with viable yeast cells in the brew. The physical and chemical characteristics of the brew as well as taste and palatability were also measured with the help of healthy volunteers. […]

lager yeast CBMS = experiment: Cytotoxic effects of HBD-3 against the lager yeast; type: cell-based, Saccharomyces pastorianus; conditions: data not shown
Method: (§1) To test the activity of β-Defensin-3 against beer-spoiling bacteria, a defensin bioassay was carried out as described in the Methods section. Since our goal was to express HBD-3 in lager yeast, the cytotoxic effects of HBD-3 against the lager yeast CBMS was also examined. […] The minimum inhibitory concentration (MIC) values for HBD-3 against Lb. brevis and Lb. malefermentas were 5 μg/ml 0.5 μg/ml respectively. The LD-100 and MIC were lower than that required against other gram positive strains such as S. mutans, S. pyogenes, and […]. […] (data not shown).

[2] = system: Lactobacillus malifermentus; type: cell-based
Method: (§2) Cultures of Lactobacillus brevis L1055 or a control bacterium Staphylococcus aureus-were cultured at 37° C. overnight in MRS media (10 g litre^−1 universal peptone, 5 g litre^−1 meat extract, 5 g litre^−1 yeast extract, 20 g litre^−1 D(+)-glucose, 2 g litre^−1 K2HPO4, 2 g litre^−1 diammonium hydrogen citrate, 5 g litre NaOAc, 0.1 g litre^−1 MgSO4, 0.05 g litre^−1 MnSO4, final pH 6.5+/−0.2 at 37° C.). To prevent yeast growth in samples taken from fermentations seeded with L. brevis, the MRS medium was supplemented with cycloheximide at 10 μg/ml. The cultures were diluted to give a final densitiy of approximately 10^3 cells/mL. Synthetic HBD (0.5-10 μg/mL) was added to the bacterial cultures in a final volume of 100 μl volumes. CMBS cultures containing the pGREG, HBD-3-505V or HBD-3-506V were grown in overnight synthetic medium plus galactose (2%). The supernatants were concentrated (1000-fold) using molecular filtration membranes [Molecular Weight Cut Off (MWCO) 2000] ensuring all unspent sugar was removed from the medium. The concentrated supernatants were added to the bacterial cultures as described above. Following a two-hour incubation at 37° C., the number of bacterial colonies in each sample was determined following incubation on MRS plates containing cycloheximide at 37° C. for 48 hrs.
as §1

Lactobacillus brevis = type: cell-based
Method: as §2, §1

[3] = synthetic HBD-3, two-hour incubation at 37° C.

GIINTLQKYYCRVRGGRCAVLSCLPKEEQIGKCSTRGRKCCRRKK (disulfide 11-40, 18-33, 23-41 (inferred)) [HBD-3, human β-defensin-3]
reduction of bacterial load in the wort [1]: 100 fold
protective effects in beer spoilage challenge (beer spoilage bacteria): did not reveal any protective effects
reduction of bacterial load after quick freezing of the brew (Lb. brevis): 90-95%
HBD-3 concentrations at which lager yeasts were resistant (lager yeast CBMS): up to 100 μg/ml
minimum inhibitory concentration (MIC) ([2]; synthetic HBD-3): 0.5 µg/mL
LD-100 (effectively killed at concentration) [2, 3]: 1 µg/mL
minimum inhibitory concentration (MIC) (Lactobacillus brevis; synthetic HBD-3): 5 µg/mL
LD-100 (effectively killed at concentration) (Lactobacillus brevis; [3]): 10 µg/mL
